What all share (assay type): cell-based
Assay [1] relates to lung carcinoma (A549) cell line. Kind of assay: Cytotoxicity assay (resazurin reduction test), A549. Conditions: Homo sapiens, A549 cells, 48 h incubation, read-out: IC50 (μM ± SD) A549. On the procedure: (§1) Lung carcinoma (A549), colon adenocarcinoma (DLD-1) and normal skin fibroblast (WS1) human cell lines were purchased from the American Type Culture Collection (ATCC). All cell lines were cultured in minimum essential medium containing Earle’s salts and L-glutamine (Mediatech Cellgro, VA), to which 10% fetal bovine serum (Hyclone), vitamins (1X), penicillin (100 I.U./mL), streptomycin (100 μg/ml), essential amino acids (1X) and sodium pyruvate (1X) (Mediatech Cellgro, VA) were added. Cells were kept at 37°C in a humidified environment containing 5% CO2.
(§2) Exponentially growing cells were plated at a density of 5 × 10^3 cells per well in 96-well microplates (Costar, Corning inc.) in 100 µl of culture medium and were allowed to adhere for 16 hours before treatment. Then, 100 µl of increasing concentrations of extract or pure compounds dissolved in culture medium and DMSO (Sigma-Aldrich) were added. The final concentration of solvent in the culture medium was maintained at 0.25% (v/v) to avoid solvent toxicity. Cells were incubated for 48 h in the absence or in the presence of extract. Cytotoxicity was assessed using the resazurin reduction test as described by O’Brien) Fluorescence was measured on an automated 96-well Fluoroskan Ascent Fl plate reader (Labsystems) using an excitation wavelength of 530 nm and an emission wavelength of 590 nm. Cytotoxicity was expressed as the concentration of extract or compound inhibiting cell growth by 50% (IC50).
For orientation: Resazurin is reduced to fluorescent resorufin, in cell work by metabolically active cells.

Assay [2] has as its system colon adenocarcinoma (DLD-1) cell line. Description: Cytotoxicity assay (resazurin reduction test), DLD-1. Conditions: Homo sapiens, DLD-1 cells, 48 h incubation, read-out: IC50 (μM ± SD) DLD-1. On the procedure:
as §1, §2

Assay [3] deals with normal skin fibroblast (WS1) cell line. Kind of assay: Cytotoxicity assay (resazurin reduction test), WS1. Conditions: Homo sapiens, WS1 healthy cells, 48 h incubation, read-out: IC50 (μM ± SD) WS1. On the procedure:
as §1, §2

We go through nine compounds from PMC6245281, “Cytotoxic Steroidal Saponins from the Flowers of Allium leucanthum” (Molecules, 2008).

On to `O=c1[nH]cc(F)c(=O)[nH]1` [5-fluorouracil, reference compound], for which the IC50 in assay [1] turned out to be 48 ± 18 µM; in assay [2], 11 ± 2 µM; in assay [3], 20 ± 2 µM.

On to `CC1CCC2(OC1)OC1CC3C4CC(O)C5CC(OC6OC(CO)C(OC7OC(CO)C(O)C(OC8OCC(O)C(O)C8O)C7OC7OC(CO)C(O)C(O)C7O)C(O)C6O)C(O)CC5(C)C4CCC3(C)C1C2C` (centres unmarked) [Aginoside (3), aginoside], for which the IC50 in assay [1] turned out to be 5.8 ± 0.9 µM; in assay [2] it was 7.9 ± 0.5 µM; in assay [3], 3.6 ± 0.2 µM.

For `C[C@@H]1CC[C@@]2(OC1)O[C@H]1C[C@H]3[C@@H]4C[C@@H](O)[C@H]5C[C@@H](O[C@@H]6O[C@H](CO)[C@H](O[C@@H]7O[C@H](CO)[C@@H](O)[C@H](O[C@@H]8OC[C@@H](O)[C@H](O)[C@H]8O)[C@H]7O[C@@H]7O[C@H](CO)[C@@H](O)[C@H](O)[C@H]7O)[C@H](O)[C@H]6O)CC[C@]5(C)[C@H]4CC[C@]3(C)[C@H]1[C@@H]2C` [Compound 4, (25R)-5α-spirostane-3β,6β-diol 3-O-β-D-glucopyranosyl-(1→2)-[β-D-xylopyranosyl-(1→3)]-β-D-glucopyranosyl-(1→4)-β-D-galactopyranoside], the IC50 in assay [1] turned out to be 9 ± 1 µM; in assay [2], 13 ± 1 µM; in assay [3], 3.1 ± 0.1 µM.

As to `C[C@@H]1CC[C@@]2(OC1)O[C@H]1C[C@H]3[C@@H]4C[C@@H](O)[C@H]5C[C@@H](O[C@@H]6O[C@H](CO)[C@H](O[C@@H]7O[C@H](CO)[C@@H](O)[C@H](O)[C@H]7O[C@@H]7O[C@H](CO)[C@@H](O)[C@H](O)[C@H]7O)[C@H](O)[C@H]6O)[C@H](O)C[C@]5(C)[C@H]4CC[C@]3(C)[C@H]1[C@@H]2C` [Compound 6, (25R)-5α-spirostane-2α,3β,6β-triol 3-O-β-D-glucopyranosyl-(1→2)-β-D-glucopyranosyl-(1→4)-β-D-galactopyranoside], the IC50 in assay [1] turned out to be 22 ± 2 µM; in assay [2], 22 ± 2 µM; in assay [3], 14.5 ± 0.5 µM.

On to `C[C@@H]1CC[C@@]2(OC1)O[C@H]1C[C@H]3[C@@H]4C[C@@H](O)[C@H]5C[C@@H](O[C@@H]6O[C@H](CO)[C@H](O[C@@H]7O[C@H](CO)[C@@H](O)[C@H](O[C@@H]8O[C@H](CO)[C@@H](O)[C@H](O)[C@H]8O)[C@H]7O[C@@H]7O[C@H](CO)[C@@H](O)[C@H](O[C@@H]8O[C@H](CO)[C@@H](O)[C@H](O)[C@H]8O)[C@H]7O)[C@H](O)[C@H]6O)CC[C@]5(C)[C@H]4CC[C@]3(C)[C@H]1[C@@H]2C` [Compound 7, (25R)-5α-spirostane-3β,6β-diol 3-O-β-D-glucopyranosyl-(1→3)-β-D-glucopyranosyl-(1→2)-[β-D-glucopyranosyl-(1→3)]-β-D-glucopyranosyl-(1→4)-β-D-galactopyranoside], for which the IC50 in assay [1] was 7.8 ± 0.4 µM; in assay [2] it was 8.9 ± 0.2 µM; in assay [3], 7.7 ± 0.2 µM.

As to `CC1CCC2(OC1)OC1CC3C4CC(O)C5CC(OC6OC(CO)C(OC7OC(CO)C(O)C(OC8OC(CO)C(O)C(O)C8O)C7OC7OC(CO)C(O)C(O)C7O)C(O)C6O)CCC5(C)C4CCC3(C)C1C2C` (centres unmarked) [Eruboside B (2), eruboside B], the IC50 is 5.3 ± 0.5 µM in assay [1], 8.2 ± 0.4 µM in assay [2] and 3.6 ± 0.2 µM in assay [3].

As to `COc1cc([C@@H]2c3cc4c(cc3[C@@H](O[C@@H]3O[C@@H]5CO[C@@H](C)O[C@H]5[C@H](O)[C@H]3O)[C@H]3COC(=O)[C@H]23)OCO4)cc(OC)c1O` [Etoposide, reference compound], the IC50 in assay [1] amounted to 1.1 ± 0.1 µM; in assay [2] it was 4.8 ± 0.8 µM.

As to `C[C@@H]1CC[C@@]2(OC1)O[C@H]1C[C@H]3[C@@H]4C[C@@H](O)[C@H]5C[C@@H](O[C@@H]6O[C@H](CO)[C@H](O[C@@H]7O[C@H](CO)[C@@H](O)[C@H](O[C@@H]8O[C@H](CO)[C@@H](O)[C@H](O)[C@H]8O)[C@H]7O[C@@H]7O[C@H](CO)[C@@H](O)[C@H](O[C@@H]8O[C@H](CO)[C@@H](O)[C@H](O)[C@H]8O)[C@H]7O)[C@H](O)[C@H]6O)[C@H](O)C[C@]5(C)[C@H]4CC[C@]3(C)[C@H]1[C@@H]2C` [Leucospiroside A (5), (25R)-5α-spirostane-2α,3β,6β-triol 3-O-β-glucopyranosyl-(1→3)-β-glucopyranosyl-(1→2)-[β-glucopyranosyl-(1→3)]-β-glucopyranosyl-(1→4)-β-galactopyranoside], the half-maximal inhibitory concentration (IC50) in assay [1] worked out at 5 ± 0.1 µM; in assay [2], 7.2 ± 0.1 µM; in assay [3], 4.55 ± 0.07 µM.

For `CC1CCC2(OC1)OC1CC3C4CC(O)C5CC(OC6OC(CO)C(OC7OC(CO)C(O)C(OC8OC(CO)C(O)C(O)C8O)C7OC7OC(CO)C(O)C(O)C7O)C(O)C6O)C(O)CC5(C)C4CCC3(C)C1C2C` (centres unmarked) [Yayoisaponin C (1), yayoisaponin C], the figures for the IC50 in assay [1], in assay [2] and in assay [3] were 3.7 ± 0.7 µM, 5.6 ± 0.2 µM and 3 ± 0.2 µM, respectively.

What is called IC50 is the point on the concentration scale where inhibition reaches its midpoint.
